DBAASP
In brackets after ≈: the same amount, converted by molar mass.

What was measured:
Experiment in all cases: ≥ marks a high value that may be exact or a test limit, other limits are often not marked, values filed in µg/mL are converted to µM
[1] = test system: Staphylococcus aureus ATCC 25923
[2] = test system: Pseudomonas aeruginosa H103
[3] = test system: Enterococcus faecalis ATCC 29212
[4] = test system: Staphylococcus epidermidis
[5] = test system: Candida albicans
[6] = test system: Escherichia coli UB1005
[7] = test system: Salmonella enterica serovar Typhimurium
[8] = test system: Escherichia coli ATCC 25726
[9] = test system: Pseudomonas aeruginosa Ps4
[10] = test system: Escherichia coli ATCC 25922
[11] = test system: Bacillus subtilis ATCC 23857
[12] = test system: Pseudomonas aeruginosa PAO1
[13] = test system: Acinetobacter baumannii
[14] = test system: Pseudomonas aeruginosa
[15] = test system: Escherichia coli
[16] = test system: Klebsiella pneumoniae
[17] = test system: Staphylococcus aureus
[18] = test system: Enterococcus faecalis

CC[C@H](C)[C@H](NC(=O)[C@@H](N)Cc1ccccc1)C(=O)N[C@@H](CCCCN)C(=O)N[C@@H](Cc1c[nH]c2ccccc12)C(=O)N[C@@H](CCCCN)C(=O)N[C@@H](Cc1ccccc1)C(=O)N[C@@H](CCCN=C(N)N)C(=O)N[C@@H](Cc1c[nH]c2ccccc12)C(=O)N[C@@H](Cc1c[nH]c2ccccc12)C(=O)N[C@@H](CCCCN)C(=O)N[C@@H](Cc1c[nH]c2ccccc12)C(=O)N[C@@H](CCCN=C(N)N)C(=O)N[C@@H](CCCCN)C(=O)O [FIKWKFRWWKWRK]
MIC [1]: 0.7 µM (≈ 1.4 µg/mL)
MIC [2]: 6 µM (≈ 12 µg/mL)
MIC [3]: 1.5 µM (≈ 2.99 µg/mL)
MIC [4]: 0.7 µM (≈ 1.4 µg/mL)
MIC [5]: 3 µM (≈ 5.99 µg/mL)
MIC [6]: 1.5 µM (≈ 2.99 µg/mL)
MIC [7]: 1.5 µM (≈ 2.99 µg/mL)

CC[C@H](C)[C@H](NC(=O)CNC(=O)CNC(=O)[C@H](CCCCN)NC(=O)[C@H](Cc1ccccc1)NC(=O)[C@H](Cc1ccccc1)NC(=O)[C@H](CCCCN)NC(=O)[C@H](CCCCN)NC(=O)[C@H](CC(C)C)NC(=O)[C@@H](NC(=O)[C@H](CC(=O)O)NC(=O)[C@H](CCCCN)NC(=O)[C@@H](NC(=O)[C@@H](NC(=O)[C@@H]1CCCN1C(=O)[C@@H]1CCCN1C(=O)[C@@H](NC(=O)[C@H](CCCCN)NC(=O)[C@@H](N)Cc1ccccc1)[C@@H](C)CC)[C@@H](C)CC)C(C)C)[C@@H](C)O)C(=O)N[C@@H](C)C(=O)NCC(=O)N[C@H](C(=O)N[C@@H](CCSC)C(=O)NCC(=O)N[C@@H](CCC(N)=O)C(=O)O)C(C)C [FKIPPIVKDTLKKFFKGGIAGVMGQ]
MIC [8]: 20 µM (≈ 54.4 µg/mL)
MIC [1]: 5 µM (≈ 13.6 µg/mL)

CC[C@H](C)[C@@H]1NC(=O)[C@H](C)NC(=O)[C@@H](NC(=O)[C@H](Cc2ccccc2)NC(=O)[C@@H](NC(=O)[C@@H](NC(=O)[C@@H]2CCCN2C(=O)[C@@H](NC(=O)[C@@H](NC(=O)[C@H](CCCCN)NC(=O)[C@H](C)NC(=O)[C@H](C)NC(=O)[C@@H](NC(=O)[C@H](CCCN=C(N)N)NC(=O)[C@H](CC(C)C)NC(=O)[C@@H](NC(=O)[C@H](C)NC(=O)[C@@H]2CCCN2C(=O)[C@H](CC(C)C)NC(=O)[C@@H](N)Cc2ccccc2)C(C)C)C(C)C)[C@@H](C)CC)C(C)C)[C@@H](C)O)C(C)C)CSSC[C@@H](C(=O)O)NC(=O)[C@H](CCCCN)NC(=O)[C@H](CCCCN)NC(=O)[C@H](CO)NC1=O [FLPAVLRVAAKIVPTVFCAISKKC]
MIC [8]: 24.3 µM (≈ 62.5 µg/mL)
MIC [1]: 3.11 µM (≈ 7.99 µg/mL)

CC[C@H](C)[C@H](NC(=O)[C@H](CC(N)=O)NC(=O)[C@H](CCCN=C(N)N)NC(=O)[C@H](CCC(N)=O)NC(=O)[C@H](Cc1c[nH]c2ccccc12)NC(=O)[C@@H](N)Cc1ccccc1)C(=O)N[C@@H](CCCN=C(N)N)C(=O)N[C@@H](CCCCN)C(=O)N[C@@H](Cc1c[nH]c2ccccc12)C(=O)N[C@@H](CCCN=C(N)N)C(N)=O [FWQRNIRKWR]
MIC [9]: ≥ 83.9 µM
MIC [10]: 83.9 µM (≈ 125 µg/mL)

CC[C@H](C)[C@H](NC(=O)[C@H](CCCN=C(N)N)NC(=O)[C@H](Cc1c[nH]c2ccccc12)NC(=O)[C@@H](NC(=O)[C@H](CCCN=C(N)N)NC(=O)[C@H](Cc1c[nH]c2ccccc12)NC(=O)[C@@H](N)Cc1ccccc1)[C@@H](C)CC)C(=O)N[C@@H](Cc1c[nH]c2ccccc12)C(=O)N[C@@H](CCCN=C(N)N)C(N)=O [FWRIWRIWR]
MIC [9]: ≥ 44.1 µM

CC[C@H](C)[C@H](NC(=O)[C@H](CCCN=C(N)N)NC(=O)[C@@H](NC(=O)[C@H](CC(N)=O)NC(=O)[C@H](CCCN=C(N)N)NC(=O)[C@H](Cc1c[nH]c2ccccc12)NC(=O)[C@@H](N)Cc1ccccc1)[C@@H](C)CC)C(=O)N[C@@H](CCCN=C(N)N)C(=O)N[C@@H](CCCN=C(N)N)C(N)=O [FWRNIRIRR]
MIC [9]: ≥ 94.9 µM

NC(=O)[C@H](CCCN=C(N)N)NC(=O)[C@H](CCCN=C(N)N)NC(=O)[C@H](Cc1c[nH]c2ccccc12)NC(=O)[C@H](CCCN=C(N)N)NC(=O)[C@H](Cc1c[nH]c2ccccc12)NC(=O)[C@@H](N)Cc1ccccc1 [FWRWRR]
MIC [9]: ≥ 124 µM

CC[C@H](C)[C@H](NC(=O)CNC(=O)[C@H](Cc1ccccc1)NC(=O)[C@H](CCSC)NC(=O)[C@@H](NC(=O)[C@H](CC(N)=O)NC(=O)[C@H](CCCCN)NC(=O)[C@H](Cc1ccccc1)NC(=O)[C@H](C)NC(=O)CNC(=O)[C@H](CCCCN)NC(=O)[C@H](Cc1ccccc1)NC(=O)CN)C(C)C)C(=O)N[C@@H](C)C(=O)N[C@@H](CCCCN)C(=O)N[C@@H](CO)C(=O)N[C@@H](C)C(=O)NCC(=O)N[C@@H](CCCCN)C(=O)N[C@@H](CO)C(=O)N[C@@H](C)C(=O)N[C@@H](CC(C)C)C(=O)N[C@@H](CC(N)=O)C(=O)N[C@@H](C)C(=O)N[C@@H](CC(C)C)C(=O)N[C@@H](C)C(=O)N[C@H]1CSSC[C@@H](C(=O)O)NC(=O)[C@H](CO)NC(=O)[C@H](CCCCN)NC(=O)[C@H](CC(=O)O)NC(=O)[C@H]([C@@H](C)CC)NC(=O)[C@H](CCCCN)NC1=O [GFKGAFKNVMFGIAKSAGKSALNALACKIDKSC]
MIC [8]: 9.18 µM (≈ 31 µg/mL)
MIC [1]: 9.18 µM (≈ 31 µg/mL)

CC[C@H](C)[C@H](NC(=O)CN)C(=O)N[C@H](C(=O)N[C@@H](C)C(=O)NCC(=O)N[C@@H](C)C(=O)N[C@H](C(=O)N[C@H](C(=O)N[C@@H](CCCCN)C(=O)N[C@H](C(=O)N[C@@H](CCCCN)C(=O)N[C@@H](CCCCN)C(N)=O)[C@@H](C)CC)[C@@H](C)CC)[C@@H](C)CC)[C@@H](C)CC [GIIAGAIIKIKK]
MIC [11]: ≥ 32 µM
MIC [10]: 64 µM (≈ 78.3 µg/mL)

CC(C)C[C@@H]1NC(=O)CNC(=O)[C@H](CO)NC(=O)[C@H](CC(C)C)NC(=O)[C@H](C)NC(=O)[C@@H](NC(=O)[C@H](C)NC(=O)[C@@H](NC(=O)[C@H](CCCCN)NC(=O)[C@H](CCCCN)NC(=O)CNC(=O)[C@H](C)NC(=O)CNC(=O)[C@H](Cc2ccccc2)NC(=O)[C@H](CC(C)C)NC(=O)[C@H](CO)NC(=O)CNC(=O)[C@H](CC(C)C)NC(=O)[C@H](CC(C)C)NC(=O)CN)C(C)C)CSSC[C@@H](C(=O)O)NC1=O [GLLGSLFGAGKKVACALSGLC]
MIC [8]: 31.8 µM (≈ 62.4 µg/mL)
MIC [1]: 63.6 µM (≈ 125 µg/mL)

CC[C@H](C)[C@H](NC(=O)[C@H](CCCN=C(N)N)NC(=O)[C@H](Cc1ccccc1)NC(=O)[C@H](CCCN=C(N)N)NC(=O)[C@@H](N)CCCCN)C(=O)N[C@@H](CCCN=C(N)N)C(=O)N[C@H](C(=O)N[C@@H](CCCN=C(N)N)C(=O)N[C@H](C(=O)N[C@H](C(=O)N[C@@H](CCCN=C(N)N)C(=O)N[C@@H](CCCCN)C(N)=O)[C@@H](C)CC)C(C)C)C(C)C [KRFRIRVRVIRK]
MIC [12]: 7.38 µM (≈ 12 µg/mL)
MIC [1]: 3.69 µM (≈ 6 µg/mL)
MIC [2]: 3.69 µM (≈ 6 µg/mL)
MIC [4]: 0.492 µM (≈ 0.8 µg/mL)
MIC [5]: 7.38 µM (≈ 12 µg/mL)
MIC [6]: 0.983 µM (≈ 1.6 µg/mL)
MIC [7]: 1.84 µM (≈ 3 µg/mL)

CC[C@H](C)[C@H](NC(=O)[C@@H](N)CCCN=C(N)N)C(=O)N[C@@H](CCCCN)C(=O)N[C@@H](CCCN=C(N)N)C(=O)N[C@@H](Cc1c[nH]c2ccccc12)C(=O)N[C@@H](Cc1c[nH]c2ccccc12)C(=O)N[C@@H](Cc1c[nH]c2ccccc12)C(=O)N[C@@H](Cc1c[nH]c2ccccc12)C(=O)N[C@@H](CCCN=C(N)N)C(=O)O [RIKRWWWWR]
MIC [1]: 1.3 µM (≈ 1.91 µg/mL)
MIC [2]: ≥ 86.3 µM
MIC [3]: 10.8 µM (≈ 15.9 µg/mL)
MIC [4]: 1.3 µM (≈ 1.91 µg/mL)
MIC [5]: 5.4 µM (≈ 7.95 µg/mL)
MIC [6]: 2.7 µM (≈ 3.98 µg/mL)
MIC [7]: 2.7 µM (≈ 3.98 µg/mL)

CC[C@H](C)[C@H](NC(=O)CNC(=O)[C@H](CCCN=C(N)N)NC(=O)[C@H](Cc1ccc(O)cc1)NC(=O)[C@H](CC(C)C)NC(=O)[C@H](Cc1cnc[nH]1)NC(=O)CNC(=O)[C@H](Cc1ccccc1)NC(=O)[C@@H](N)Cc1c[nH]c2ccccc12)C(=O)N[C@H](C(=O)N[C@@H](CCCCN)C(=O)N[C@H](C(=O)N[C@H](C(=O)N[C@@H](CCCCN)C(=O)N[C@@H](Cc1cnc[nH]1)C(=O)N[C@H](C(=O)N[C@@H](Cc1cnc[nH]1)C(=O)NCC(=O)N[C@@H](CC(C)C)C(=O)N[C@@H](CC(C)C)C(=O)N[C@@H](CCCCN)C(=O)NCC(=O)O)C(C)C)C(C)C)C(C)C)[C@@H](C)O [WFGHLYRGITKVVKHVHGLLKG]
MIC [13]: 1.2 µM (≈ 3.06 µg/mL)
MIC [14]: 4.9 µM (≈ 12.5 µg/mL)
MIC [4]: 2.5 µM (≈ 6.37 µg/mL)
MIC [15]: 2.5 µM (≈ 6.37 µg/mL)
MIC [16]: 1.2 µM (≈ 3.06 µg/mL)
MIC [17]: 19.6 µM (≈ 49.9 µg/mL)
MIC [18]: 1.2 µM (≈ 3.06 µg/mL)

CC[C@H](C)[C@H](NC(=O)[C@H](Cc1ccc(O)cc1)NC(=O)[C@@H](NC(=O)[C@H](CCCN=C(N)N)NC(=O)[C@H](Cc1c[nH]c2ccccc12)NC(=O)[C@H](CCCN=C(N)N)NC(=O)[C@H](Cc1ccccc1)NC(=O)[C@H](CCCCN)NC(=O)[C@@H](N)Cc1ccc(O)cc1)[C@@H](C)CC)C(=O)O [YKFRWRIYI]
MIC [1]: 2.9 µM (≈ 3.9 µg/mL)
MIC [2]: ≥ 92.8 µM
MIC [3]: 2.9 µM (≈ 3.9 µg/mL)
MIC [4]: 1.4 µM (≈ 1.88 µg/mL)
MIC [5]: > 92.8 µM
MIC [6]: 2.9 µM (≈ 3.9 µg/mL)
MIC [7]: ≥ 92.8 µM
